Experimental data reported in PMC8557474, “Reliability of the AR-CALUX®In Vitro Method Used to Detect Chemicals with (Anti)Androgen Activity: Results of an International Ring Trial” (Toxicological Sciences, 2021).
In brackets after ≈: the same amount, converted by molar mass. Like-named read-outs stand apart in the source and are kept apart here. Starred links: 1 amine or outer side, 2 acyl side, 3 side chain; linkers in the order of their positions; H or OH if unused. Positions of bridges follow the written chain, without caps; N, C: chain ends. Non-standard residues stand in square brackets, D forms with d. Residues, ends and D or L forms follow the SMILES beside them. Chains are numbered I, II in the order given. Actinocin(9to1) = Cc1c2oc3c(C)ccc(C(=O)[*:1])c3nc-2c(C(=O)[*:2])c(N)c1=O; NMeV = CN[C@H](C(=O)O)C(C)C; Sar = CNCC(=O)O

Legend:
androgen receptor [1] = conditions: ref OECD, 2020b; cited from earlier work
androgen receptor [2] = test system: androgen receptor; set-up: method as in Park et al., 2021; conditions: ref Park et al., 2021; cited from earlier work
[3] = target: T1, human androgen receptor (hAR) (Homo sapiens, UniProt P10275); assay: cell-based; assay type: cell-based
T1 construct: host or cells: U2-OS human osteosarcoma cells (ATCC HTB 96), stably transfected (AR-CALUX cell line)
T1 sequence (P10275 1-920): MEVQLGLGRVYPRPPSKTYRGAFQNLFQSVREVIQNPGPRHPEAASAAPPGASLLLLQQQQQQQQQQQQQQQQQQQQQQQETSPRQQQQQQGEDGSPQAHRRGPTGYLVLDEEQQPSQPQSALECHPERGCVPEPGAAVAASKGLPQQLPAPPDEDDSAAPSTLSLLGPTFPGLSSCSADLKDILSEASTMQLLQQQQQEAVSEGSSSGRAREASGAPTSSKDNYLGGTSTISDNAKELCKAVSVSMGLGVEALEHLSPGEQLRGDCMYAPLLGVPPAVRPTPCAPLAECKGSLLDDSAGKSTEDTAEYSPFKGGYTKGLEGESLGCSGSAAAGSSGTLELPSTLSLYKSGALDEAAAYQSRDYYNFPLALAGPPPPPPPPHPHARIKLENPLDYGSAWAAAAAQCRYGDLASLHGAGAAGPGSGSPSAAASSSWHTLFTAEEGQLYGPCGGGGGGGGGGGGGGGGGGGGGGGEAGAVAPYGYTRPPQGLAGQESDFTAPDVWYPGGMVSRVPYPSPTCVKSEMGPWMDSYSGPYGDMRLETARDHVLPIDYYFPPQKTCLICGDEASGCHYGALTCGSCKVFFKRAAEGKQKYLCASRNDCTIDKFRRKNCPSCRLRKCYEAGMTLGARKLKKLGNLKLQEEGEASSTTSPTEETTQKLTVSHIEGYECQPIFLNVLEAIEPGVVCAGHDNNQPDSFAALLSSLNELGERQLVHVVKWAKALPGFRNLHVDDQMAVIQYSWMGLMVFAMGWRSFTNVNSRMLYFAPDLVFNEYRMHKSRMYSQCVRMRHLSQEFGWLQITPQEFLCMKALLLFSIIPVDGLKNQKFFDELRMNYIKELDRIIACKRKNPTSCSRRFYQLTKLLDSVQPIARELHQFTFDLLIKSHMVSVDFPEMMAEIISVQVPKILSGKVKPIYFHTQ
Description: (§1) The AR-CALUX® cell line was created by BioDetection Systems (BDS). It can be purchased from BDS with a license (https://www.biodetectionsystems.com). The human osteosarcoma cell line U2-OS (ATCC HTB 96) was transfected with 2 constructs: pSG5-neo-hAR carrying the cDNA of a human androgen receptor (hAR) under a constitutive promoter, and, a luciferase reporter gene which is preceded by a triple tandem of AREs in front of a TATA box (3x ARE Luc). […] The AR-CALUX® cell line was obtained from the test method developer BDS. EURL ECVAM prepared a master cell bank and a large working cell bank which were tested for the absence of mycoplasma, bacteria, fungi, and yeast and for the absence of Hepatitis B and C and HIV. In addition, to verifying the authenticity of the cell line, Short Tandem Repeat (STR) profiling was carried out to confirm the test system to be U2-OS cells. […] The laboratories were requested, at the end of each part of the study (Parts 1, 2, and 3), to perform a mycoplasma test of their choice. Additional aliquots were sent to EURL ECVAM for a reanalysis of authenticity.
(§2) Subsequently, the test chemical was assessed with a prescreen run (dilution steps of 10) and simultaneously with the quantitative cytotoxicity test to determine (1) cytotoxic concentrations, (2) the response, and (3) the appropriate dose range to be tested. […] The cytotoxicity test was performed once more. Test chemicals were diluted in media and consisted of 8 serial dilutions. Each dilution was tested in triplicate.
(§3) Each experiment (run) was comprised of a maximum of 6 plates. The first plate would contain 8 serial dilutions of the reference chemical DHT (for agonism) or Flutamide (for antagonism), while the positive and negative controls were added at fixed concentrations. In addition, a solvent control was added (medium without the chemical but with DMSO 0.1%).
A. Positive when the relative induction (Yc) of the test item is ≥ 10% (REF RPC10) for two or more consecutive concentrations.

[4] = target: T1, human androgen receptor (hAR); assay: AR-CALUX antagonist assay (medium spiked with DHT at EC50); assay type: cell-based; conditions: for AR-CALUX Antagonist classification: mean of classifications, specificity control taken into account
Description: as §1, §2, §3
(§4) For the antagonist assay, the medium was supplemented with DHT at EC50 concentration (standard assay). […] Each antagonist assay was accompanied by a specificity control test carried out on the same plate.
A. Positive (competitive antagonist) when the relative induction (Yc) of the test item is ≤ 80% (REF RPC80) for two or more consecutive concentrations and […]

[5] = target: T1, human androgen receptor (hAR); assay type: cell-based; conditions: for Classification Run1: run 1; for Classification Run3: run 3; for Shift Direction of specificity control dose response: vs standard antagonist dose response
Description: as §4
the square of the correlation coefficient (R^2) is ≤ 0.9 between the relative induction of the test item (Yc) and its specificity control (Sc)

physchem = assay: physchem
Experimental: It details the cell cultivation and seeding procedure, the preparation of the reference, control and test chemicals, the procedure for agonist testing and antagonist testing, prescreen runs, and comprehensive runs, as well as data analysis and data interpretation. This SOP also includes references to the SOPs for solubility testing and cytotoxicity testing. […] Solubility was tested both in the solvent and in media under similar circumstances as would be required during the (ant)agonist testing. The initial concentration to be tested was prescribed at 50 mg/ml. Starting from the highest soluble concentration, cytotoxicity was determined with an LDH assay. Visual checking of cytotoxicity in all wells of the plate was however also required for each run.
This included an investigation by heating, centrifugation, microscopy, and visual checking. […] For the purpose of the validation study, the labs were requested to start from 50 mg/ml as the maximal stock concentration to be tested.

C#C[C@]1(O)CC[C@H]2[C@@H]3CCc4cc(O)ccc4[C@H]3CC[C@@]21C [17α-Ethynyl estradiol]
AR-EcoScreen agonist result in words (androgen receptor [1]): negative | 22Rv1/MMTV/GR-KO TA agonist result in words (androgen receptor [2]): positive

C[C@]12C=CC3=C4CCC(=O)C=C4CC[C@H]3[C@@H]1CC[C@@H]2O [17β-Trenbolone]
Agonist classification per run, Lab 1 [3]: P P P | Agonist classification per run, Lab 2 [3]: P P P | Agonist classification per run, Lab 3 [3]: P P P | Agonist classification per run, Lab 4 [3]: P P P | EC50 [3]: 0.245 nM | Antagonist classification per run, Lab 1 [4]: N N N | Antagonist classification per run, Lab 2 [4]: N N N | Antagonist classification per run, Lab 3 [4]: − N N | Antagonist classification per run, Lab 4 [4]: N N N

Cc1c2oc3c(C)ccc(C(=O)N[C@@H]4C(=O)N[C@H](C(C)C)C(=O)N5CCC[C@H]5C(=O)N(C)CC(=O)N(C)[C@@H](C(C)C)C(=O)O[C@@H]4C)c3nc-2c(C(=O)N[C@@H]2C(=O)N[C@H](C(C)C)C(=O)N3CCC[C@H]3C(=O)N(C)CC(=O)N(C)[C@@H](C(C)C)C(=O)O[C@@H]2C)c(N)c1=O [Actinomycin D] (I: T[dV]P[Sar][NMeV] / II: T[dV]P[Sar][NMeV]; ester I:1-I:C, II:1-II:C; linker I:N-II:N via Actinocin(9to1))
AR-CALUX antagonist result in words [4]: false positive response | AR-CALUX Antagonist classification [4]: N(FP) | Scn (normalized dose response for the specificity control) [5]: >80% | Classification Run1 ([5]; antagonist): N | Classification Run2 ([5]; antagonist, run 2): N(FP) | Classification Run3 ([5]; antagonist): N(FP) | Shift Direction of specificity control dose response [5]: Right

CC(C)(c1ccc(O)cc1)c1ccc(O)cc1 [Bisphenol A]
Agonist classification per run, Lab 1 ([3]; Lab 1, 3 runs): N N N | Agonist classification per run, Lab 2 ([3]; Lab 2, 3 runs): N N N | Agonist classification per run, Lab 3 ([3]; Lab 3, 3 runs): N N N | Agonist classification per run, Lab 4 ([3]; Lab 4, 3 runs): N N N | Antagonist classification per run, Lab 1 ([4]; Lab 1, 3 runs): P P P | Antagonist classification per run, Lab 2 ([4]; Lab 2, 3 runs): P P P | Antagonist classification per run, Lab 3 ([4]; Lab 3, 3 runs): P P P | Antagonist classification per run, Lab 4 ([4]; Lab 4, 3 runs): P P P | IC50 ([4]; logIC50 averaged over 4 labs, 3 valid runs per lab, read-out: Antagonist Overall logIC50 (converted)): 1380 nM | solubility (physchem; aqueous buffer, kinetic from dmso stock, Solubility in medium, Lab 1): 15 µg/mL (≈ 65.7 µM) | solubility (physchem; aqueous buffer, kinetic from dmso stock, Solubility in medium, Lab 2): > 50 µg/mL | solubility (physchem; aqueous buffer, kinetic from dmso stock, Solubility in medium, Lab 3): > 50 µg/mL | solubility (physchem; aqueous buffer, kinetic from dmso stock, Solubility in medium, Lab 4): > 50 µg/mL | solubility (physchem; organic solvent or mixture, thermodynamic from solid, Solubility in DMSO, Lab 1): > 50000 µg/mL | solubility (physchem; organic solvent or mixture, thermodynamic from solid, Solubility in DMSO, Lab 2): > 50000 µg/mL | solubility (physchem; organic solvent or mixture, thermodynamic from solid, Solubility in DMSO, Lab 3): > 50000 µg/mL | solubility (physchem; organic solvent or mixture, thermodynamic from solid, Solubility in DMSO, Lab 4): > 50000 µg/mL

CCN(CC)C(=S)SSC(=S)N(CC)CC [Disulfiram]
Agonist classification per run, Lab 1 ([3]; Lab 1, 3 runs): N N N | Agonist classification per run, Lab 2 ([3]; Lab 2, 3 runs): N N N | Agonist classification per run, Lab 3 ([3]; Lab 3, 3 runs): N N N | Agonist classification per run, Lab 4 ([3]; Lab 4, 3 runs): N N N | Antagonist classification per run, Lab 1 ([4]; Lab 1, 3 runs): N N N | Antagonist classification per run, Lab 2 ([4]; Lab 2, 3 runs): N N N | Antagonist classification per run, Lab 3 ([4]; Lab 3, 3 runs): N N N | Antagonist classification per run, Lab 4 ([4]; Lab 4, 3 runs): N N N | solubility (physchem; aqueous buffer, kinetic from dmso stock, Solubility in medium, Lab 1, assay medium, Lab 1): 5 µg/mL (≈ 16.9 µM) | solubility (physchem; aqueous buffer, kinetic from dmso stock, Solubility in medium, Lab 2, assay medium, Lab 2): 15 µg/mL (≈ 50.6 µM) | solubility (physchem; aqueous buffer, kinetic from dmso stock, Solubility in medium, Lab 3, assay medium, Lab 3): 15 µg/mL (≈ 50.6 µM) | solubility (physchem; aqueous buffer, kinetic from dmso stock, Solubility in medium, Lab 4, assay medium, Lab 4): 15 µg/mL (≈ 50.6 µM) | solubility (physchem; organic solvent or mixture, thermodynamic from solid, Solubility in DMSO, Lab 1, DMSO, Lab 1, highest tested 50 mg/ml): > 50000 µg/mL | solubility (physchem; organic solvent or mixture, thermodynamic from solid, Solubility in DMSO, Lab 2, DMSO, Lab 2, highest tested 50 mg/ml): > 50000 µg/mL | solubility (physchem; organic solvent or mixture, thermodynamic from solid, Solubility in DMSO, Lab 3, DMSO, Lab 3, highest tested 50 mg/ml): > 50000 µg/mL | solubility (physchem; organic solvent or mixture, thermodynamic from solid, Solubility in DMSO, Lab 4, DMSO, Lab 4, highest tested 50 mg/ml): > 50000 µg/mL

C[C@]12CC[C@@H]3c4ccc(O)cc4C[C@@H](CCCCCCCCC[S+]([O-])CCCC(F)(F)C(F)(F)F)[C@H]3[C@@H]1CC[C@@H]2O (stereo partly shown) [Fulvestrant]
AR-CALUX antagonist result in words [4]: false positive | AR-CALUX Antagonist classification [4]: N(FP) | Scn (normalized dose response for the specificity control) [5]: >80% | Classification Run1 ([5]; antagonist): N(FP) | Classification Run3 ([5]; antagonist): N(FP)b | Shift Direction of specificity control dose response [5]: Right

[N-]=[N+]=[N-].[Na+] [Sodium azide]
Agonist classification per run, Lab 1 ([3]; Lab 1, 3 runs): N N N | Agonist classification per run, Lab 2 ([3]; Lab 2, 3 runs): N N N | Agonist classification per run, Lab 3 ([3]; Lab 3, 3 runs): N N N | Agonist classification per run, Lab 4 ([3]; Lab 4, 3 runs): N N N | Antagonist classification per run, Lab 1 ([4]; Lab 1, 3 runs): N N N | Antagonist classification per run, Lab 2 ([4]; Lab 2, 3 runs): N N N | Antagonist classification per run, Lab 3 ([4]; Lab 3, 3 runs): N N N | Antagonist classification per run, Lab 4 ([4]; Lab 4, 3 runs): N N N | Solubility in DMSO, Lab 1 (physchem; DMSO, Lab 1, highest tested 50 mg/ml): 15000 µg/mL | Solubility in DMSO, Lab 2 (physchem; DMSO, Lab 2, highest tested 50 mg/ml): 15000 µg/mL | Solubility in DMSO, Lab 3 (physchem; DMSO, Lab 3, highest tested 50 mg/ml): 15000 µg/mL | Solubility in DMSO, Lab 4 (physchem; DMSO, Lab 4, highest tested 50 mg/ml): 15000 µg/mL | Solubility in medium, Lab 1 (physchem; assay medium, Lab 1): 15 µg/mL | Solubility in medium, Lab 2 (physchem; assay medium, Lab 2): 15 µg/mL | Solubility in medium, Lab 3 (physchem; assay medium, Lab 3): 15 µg/mL | Solubility in medium, Lab 4 (physchem; assay medium, Lab 4): 5 µg/mL
